Series [1] can be described thus: Absorbance and fluorescence emission spectra (SpectraMax M2). It counts as physicochemical. Conditions: for λmax Abs. (nm) / λmax Em. (nm): MKAC compound library; for λmax Abs. (nm) / λmax Absorp. (nm): absorbance maximum; for λmax Em. (nm) / λmax Emission (nm): fluorescence emission maximum; for λmax Absorp. (nm) / λmax Emission (nm): MKCA compound library. In short, it runs like this:
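Absorbance and emission maxima measured on a SpectraMax M2 spectrophotometer, which also gave quantum yield data; analysis in GraphPrism.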

The nature of series [2]: Quantum yield measurements versus Acridine Yellow in EtOH. It counts as physicochemical. Conditions: quantum yield. In short, it runs like this: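 Fluorescence quantum yield is relative to Acridine Yellow in EtOH (Φ 0.47), with excitation at 460 nm. Integrated emission at 510–700 nm was corrected for absorbance at the excitation wavelength and for solvent refractive index.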

For the compound `CCCc1cn(-c2ccc3n2[B-](F)(F)[N+]2=C(N(C)Cc4ccccc4)C=CC2=C3c2ccc(NC(C)=O)cc2)nn1` [MKAC195-48], in series [1], the “λmax Abs. (nm)” value is given as 467 nm and the “λmax Em. (nm)” value turned out to be 575 nm. Besides, the “φ (%)” value in series [2] (MKAC compound library) is 2.72%.
The corresponding values for `CC(=O)Nc1ccc(C2=C3C=CC(N(C)Cc4ccccc4)=[N+]3[B-](F)(F)n3c2ccc3-n2cc(CO)nn2)cc1` [MKAC195-70] are 464 nm, 579 nm and 1.67%.
The corresponding values for `CC(=O)Nc1ccc(C2=C3C=CC(N4CCCC4)=[N+]3[B-](F)(F)n3c2ccc3-n2cc(C3CC3)nn2)cc1` [MKAC215-4] are 462 nm, 576 nm and 2.35%.
Taken in the same sequence, the figures for `CC(=O)Nc1ccc(C2=C3C=CC(N4CCCC4)=[N+]3[B-](F)(F)n3c2ccc3-n2cc(C3CCCC3)nn2)cc1` [MKAC215-5] were 463 nm, 574 nm and 1.00%.
Consider `CC(=O)Nc1ccc(C2=C3C=CC(N4CCCC4)=[N+]3[B-](F)(F)n3c2ccc3-n2cc(CC3CCCCC3)nn2)cc1` [MKAC215-8], for which, in series [1], the “λmax Abs. (nm)” value is recorded as 462 nm and the “λmax Em. (nm)” value is recorded as 568 nm. Besides, in series [2] (MKAC compound library), the “φ (%)” value is 1.17%.
Consider `CC(=O)Nc1ccc(C2=C3C=CC(N4CCCC4)=[N+]3[B-](F)(F)n3c2ccc3-n2cc(CN(C)Cc3ccccc3)nn2)cc1` [MKAC215-18], for which, in series [1], the “λmax Abs. (nm)” value came to 461 nm and the “λmax Em. (nm)” value turned out to be 569 nm. Moreover, the “φ (%)” value in series [2] (MKAC compound library) came to 1.54%.
`CC(=O)Nc1ccc(C2=C3C=CC(N4CCCC4)=[N+]3[B-](F)(F)n3c2ccc3-n2cc(CCc3ccccc3)nn2)cc1` [MKAC215-19]: in series [1], the “λmax Abs. (nm)” value came out at 462 nm and the “λmax Em. (nm)” value is recorded as 567 nm. In addition, in series [2] (MKAC compound library), the “φ (%)” value turned out to be 3.41%.
Turning to `CC(=O)Nc1ccc(C2=C3C=CC(N4CCCC4)=[N+]3[B-](F)(F)n3c2ccc3-n2cc(CC(C)C)nn2)cc1` [MKAC215-43], in series [1], the “λmax Abs. (nm)” value worked out at 461 nm and the “λmax Em. (nm)” value turned out to be 565 nm. In addition, in series [2] (MKAC compound library), the “φ (%)” value was 1.83%.
As for `CCCc1cn(-c2ccc3n2[B-](F)(F)[N+]2=C(N4CCCC4)C=CC2=C3c2ccc(NC(C)=O)cc2)nn1` [MKAC215-48], in series [1], the “λmax Abs. (nm)” value came to 461 nm and the “λmax Em. (nm)” value is listed as 566 nm. In series [2] (MKAC compound library), the “φ (%)” value was determined as 2.70%.
The corresponding values for `CC(=O)Nc1ccc(C2=C3C=CC(N4CCCC4)=[N+]3[B-](F)(F)n3c2ccc3-n2cc(CO)nn2)cc1` [MKAC215-70] are 461 nm, 574 nm and 1.11%.
Taken in the same sequence, the figures for `CCCC(C)c1cn(-c2ccc3n2[B-](F)(F)[N+]2=C(NCc4cc(F)cc(F)c4)C=CC2=C3c2ccc(NC(C)=O)cc2)nn1` (stereo not drawn) [MKAC412-3] were 466 nm, 561 nm and 27.73%.
Take `CC(=O)Nc1ccc(C2=C3C=CC(NCc4cc(F)cc(F)c4)=[N+]3[B-](F)(F)n3c2ccc3-n2cc(C3CC3)nn2)cc1` [MKAC412-4]: in series [1], the “λmax Abs. (nm)” value was determined as 466 nm and the “λmax Em. (nm)” value came to 562 nm. For the same compound, the “φ (%)” value in series [2] (MKAC compound library) was found to be 26.84%.
In the case of `CC(=O)Nc1ccc(C2=C3C=CC(NCc4cc(F)cc(F)c4)=[N+]3[B-](F)(F)n3c2ccc3-n2cc(CC3CCCCC3)nn2)cc1` [MKAC412-8], in series [1], the “λmax Abs. (nm)” value was determined as 467 nm and the “λmax Em. (nm)” value was found to be 562 nm. Moreover, the “φ (%)” value in series [2] (MKAC compound library) was 16.81%.
Turning to `CC(=O)Nc1ccc(C2=C3C=CC(NCc4cc(F)cc(F)c4)=[N+]3[B-](F)(F)n3c2ccc3-n2cc(CN(C)Cc3ccccc3)nn2)cc1` [MKAC412-18], in series [1], the “λmax Abs. (nm)” value is given as 465 nm and the “λmax Em. (nm)” value was determined as 561 nm. The “φ (%)” value in series [2] (MKAC compound library) worked out at 21.83%.
For `CC(=O)Nc1ccc(C2=C3C=CC(NCc4cc(F)cc(F)c4)=[N+]3[B-](F)(F)n3c2ccc3-n2cc(CCc3ccccc3)nn2)cc1` [MKAC412-19], in series [1], the “λmax Abs. (nm)” value turned out to be 467 nm and the “λmax Em. (nm)” value is listed as 562 nm. Besides, the “φ (%)” value in series [2] (MKAC compound library) is 24.16%.
Consider `CC(=O)Nc1ccc(C2=C3C=CC(NCc4cc(F)cc(F)c4)=[N+]3[B-](F)(F)n3c2ccc3-n2cc(CC(C)C)nn2)cc1` [MKAC412-43], for which, in series [1], the “λmax Abs. (nm)” value worked out at 467 nm and the “λmax Em. (nm)” value is on record as 560 nm. For the same compound, the “φ (%)” value in series [2] (MKAC compound library) is 18.26%.
As for `CCCc1cn(-c2ccc3n2[B-](F)(F)[N+]2=C(NCc4cc(F)cc(F)c4)C=CC2=C3c2ccc(NC(C)=O)cc2)nn1` [MKAC412-48], in series [1], the “λmax Abs. (nm)” value is 467 nm and the “λmax Em. (nm)” value is listed as 561 nm. Moreover, the “φ (%)” value in series [2] (MKAC compound library) came out at 22.19%.
As to `CCCCCC(O)c1cn(-c2ccc3n2[B-](F)(F)[N+]2=C(NCc4cc(F)cc(F)c4)C=CC2=C3c2ccc(NC(C)=O)cc2)nn1` (stereo not drawn) [MKAC412-69], in series [1], the “λmax Abs. (nm)” value was 468 nm and the “λmax Em. (nm)” value is recorded as 563 nm. Further, in series [2] (MKAC compound library), the “φ (%)” value came out at 17.68%.
For the compound `CC(=O)Nc1ccc(C2=C3C=CC(NCc4cc(F)cc(F)c4)=[N+]3[B-](F)(F)n3c2ccc3-n2cc(CO)nn2)cc1` [MKAC412-70], in series [1], the “λmax Abs. (nm)” value is reported as 461 nm and the “λmax Em. (nm)” value was 561 nm. For the same compound, the “φ (%)” value in series [2] (MKAC compound library) is given as 3.96%.
With `CCCC(C)c1cn(-c2ccc3n2[B-](F)(F)[N+]2=C(N4CC(C)OC(C)C4)C=CC2=C3c2ccc(NC(=O)CCl)cc2)nn1` (stereo not drawn) [MKCA20-3], in series [1], the “λmax Absorp. (nm)” value came to 467 nm and the “λmax Emission (nm)” value was 581 nm. The “φ (%)” value in series [2] (MKCA compound library) amounted to 3.15%.
Taken in the same sequence, the figures for `CC1CN(C2=[N+]3C(=C(c4ccc(NC(=O)CCl)cc4)c4ccc(-n5cc(C6CC6)nn5)n4[B-]3(F)F)C=C2)CC(C)O1` (stereo not drawn) [MKCA20-4] were 466 nm, 581 nm and 6.11%.
`CC1CN(C2=[N+]3C(=C(c4ccc(NC(=O)CCl)cc4)c4ccc(-n5cc(C6CCCC6)nn5)n4[B-]3(F)F)C=C2)CC(C)O1` (stereo not drawn) [MKCA20-5]: in series [1], the “λmax Absorp. (nm)” value is 468 nm and the “λmax Emission (nm)” value is listed as 581 nm. Moreover, the “φ (%)” value in series [2] (MKCA compound library) was found to be 4.60%.
The corresponding values for `CC1CN(C2=[N+]3C(=C(c4ccc(NC(=O)CCl)cc4)c4ccc(-n5cc(CC6CCCCC6)nn5)n4[B-]3(F)F)C=C2)CC(C)O1` (stereo not drawn) [MKCA20-8] are 466 nm, 573 nm and 6.71%.
The corresponding values for `CC1CN(C2=[N+]3C(=C(c4ccc(NC(=O)CCl)cc4)c4ccc(-n5cc(CN(C)Cc6ccccc6)nn5)n4[B-]3(F)F)C=C2)CC(C)O1` (stereo not drawn) [MKCA20-18] are 466 nm, 585 nm and 2.54%.
For the compound `CC1CN(C2=[N+]3C(=C(c4ccc(NC(=O)CCl)cc4)c4ccc(-n5cc(CCc6ccccc6)nn5)n4[B-]3(F)F)C=C2)CC(C)O1` (stereo not drawn) [MKCA20-19], in series [1], the “λmax Absorp. (nm)” value was 467 nm and the “λmax Emission (nm)” value came out at 583 nm. Moreover, the “φ (%)” value in series [2] (MKCA compound library) is reported as 5.32%.
`CC(C)Cc1cn(-c2ccc3n2[B-](F)(F)[N+]2=C(N4CC(C)OC(C)C4)C=CC2=C3c2ccc(NC(=O)CCl)cc2)nn1` (stereo not drawn) [MKCA20-43]: in series [1], the “λmax Absorp. (nm)” value is 468 nm and the “λmax Emission (nm)” value came to 585 nm. Also, the “φ (%)” value in series [2] (MKCA compound library) was found to be 2.19%.
For `CCCc1cn(-c2ccc3n2[B-](F)(F)[N+]2=C(N4CC(C)OC(C)C4)C=CC2=C3c2ccc(NC(=O)CCl)cc2)nn1` (stereo not drawn) [MKCA20-48], in series [1], the “λmax Absorp. (nm)” value was 466 nm and the “λmax Emission (nm)” value amounted to 569 nm. Besides, the “φ (%)” value in series [2] (MKCA compound library) was 4.88%.
As to `CCCCCC(O)c1cn(-c2ccc3n2[B-](F)(F)[N+]2=C(N4CC(C)OC(C)C4)C=CC2=C3c2ccc(NC(=O)CCl)cc2)nn1` (stereo not drawn) [MKCA20-69], in series [1], the “λmax Absorp. (nm)” value is 469 nm and the “λmax Emission (nm)” value was found to be 586 nm. Further, in series [2] (MKCA compound library), the “φ (%)” value is recorded as 3.23%.
For the compound `CC1CN(C2=[N+]3C(=C(c4ccc(NC(=O)CCl)cc4)c4ccc(-n5cc(CO)nn5)n4[B-]3(F)F)C=C2)CC(C)O1` (stereo not drawn) [MKCA20-70], in series [1], the “λmax Absorp. (nm)” value is 469 nm and the “λmax Emission (nm)” value was found to be 587 nm. In addition, the “φ (%)” value in series [2] (MKCA compound library) is on record as 2.64%.
Take `CCCC(C)c1cn(-c2ccc3n2[B-](F)(F)[N+]2=C(N4CCc5ccccc5C4)C=CC2=C3c2ccc(NC(=O)CCl)cc2)nn1` (stereo not drawn) [MKCA66-3]: in series [1], the “λmax Absorp. (nm)” value turned out to be 469 nm and the “λmax Emission (nm)” value worked out at 582 nm. Also, the “φ (%)” value in series [2] (MKCA compound library) was 3.50%.
The corresponding values for `O=C(CCl)Nc1ccc(C2=C3C=CC(N4CCc5ccccc5C4)=[N+]3[B-](F)(F)n3c2ccc3-n2cc(C3CC3)nn2)cc1` [MKCA66-4] are 469 nm, 587 nm and 3.33%.
Regarding `O=C(CCl)Nc1ccc(C2=C3C=CC(N4CCc5ccccc5C4)=[N+]3[B-](F)(F)n3c2ccc3-n2cc(C3CCCC3)nn2)cc1` [MKCA66-5], in series [1], the “λmax Absorp. (nm)” value is reported as 470 nm and the “λmax Emission (nm)” value is 587 nm. Besides, in series [2] (MKCA compound library), the “φ (%)” value is recorded as 3.11%.
On to `O=C(CCl)Nc1ccc(C2=C3C=CC(N4CCc5ccccc5C4)=[N+]3[B-](F)(F)n3c2ccc3-n2cc(CC3CCCCC3)nn2)cc1` [MKCA66-8], for which, in series [1], the “λmax Absorp. (nm)” value is given as 469 nm and the “λmax Emission (nm)” value stood at 582 nm. For the same compound, the “φ (%)” value in series [2] (MKCA compound library) turned out to be 3.05%.
The corresponding values for `CN(Cc1ccccc1)Cc1cn(-c2ccc3n2[B-](F)(F)[N+]2=C(N4CCc5ccccc5C4)C=CC2=C3c2ccc(NC(=O)CCl)cc2)nn1` [MKCA66-18] are 466 nm, 585 nm and 2.33%.
Consider `CCCc1cn(-c2ccc3n2[B-](F)(F)[N+]2=C(N4CCc5ccccc5C4)C=CC2=C3c2ccc(NC(=O)CCl)cc2)nn1` [MKCA66-48], for which, in series [1], the “λmax Absorp. (nm)” value turned out to be 469 nm and the “λmax Emission (nm)” value was 584 nm. In addition, the “φ (%)” value in series [2] (MKCA compound library) was 3.18%.

Source of the values: patent US9513294B2, “Megastokes amino-triazolyl-BODIPY compounds and applications to live neuron staining and human serum albumin FA1 drug site probing” (National University of Singapore, priority 2012, dated 2016).
